In PMC4395004 (Pharmaceutical research, 2013):

Assay: PK study of P-S after topical
Type: in vivo, rat
Conditions: for Tmax: LEW/crlBR, rat, po, 50 mg/kg
[1] = oral gavage P-S 50 mg/kg single dose, blood
[2] = oral gavage P-S 50 mg/kg single dose, muscle
[3] = topical PSH, single dose P-S 50 mg/kg on both hind legs, muscle
[4] = topical PSH, single dose P-S 50 mg/kg, blood
[5] = topical PSH, single dose P-S 50 mg/kg, muscle

Row | Tmax (blood) | Tmax (muscle) | AUC0–24h, blood [1] | Cmax, blood [1] | AUC0–24h, muscle [2] | Cmax, muscle [2] | Cmax, muscle [3] | AUC0–24h, blood [4] | Cmax, blood [4] | AUC0–24h, muscle [5] | muscle Cmax (topical PSH, muscle) | Tmax, blood [1] | Tmax, muscle [2] | Tmax, blood [4] | Tmax, muscle [5] | SMILES
1 | 2 h | 8 h | 405 (nmole/g)*h | 33 nmol/g | 296 (nmole/g)*h | 20 nmol/g | 31 nmol/g | 245 (nmole/g)*h | 18 nmol/g | 399 (nmole/g)*h | ≤ 31 nmole/g tissue | – | – | – | – | CC1=C(CC(=O)O)c2cc(F)ccc2/C1=C\c1ccc([S+](C)[O-])cc1 (stereo not shown) [Sulindac, sulindac, reference compound]
2 | – | – | – | 52 nmol/g | 764 (nmole/g)*h | 40 nmol/g | 12 nmol/g | 400 (nmole/g)*h | 23 nmol/g | 170 (nmole/g)*h | ≤ 31 nmole/g tissue | 8 h | 8 h | 8 h | 24 h | CC1=C(CC(=O)O)c2cc(F)ccc2/C1=C\c1ccc(S(C)(=O)=O)cc1 [S.sulfone, sulindac sulfone]
3 | 8 h | 8 h | 156 (nmole/g)*h | 13 nmol/g | 158 (nmole/g)*h | 13 nmol/g | 2 nmol/g | 122 (nmole/g)*h | 10 nmol/g | 18 (nmole/g)*h | ≤ 31 nmole/g tissue | – | – | – | – | CSc1ccc(/C=C2/C(C)=C(CC(=O)O)c3cc(F)ccc32)cc1 [S.sulfide, sulindac sulfide]
